In patent publication US20230183248A1, “PYRROLO[1,2-D][1,2,4]TRIAZINE-2-YL-ACETAMIDES AS INHIBITORS OF THE NLRP3 INFLAMMASOME PATHWAY” (JANSSEN PHARMACEUTICA NV, priority 2020, published 2023):

Key:
TNF = assay: PBMC assay: LPS-stimulated TNF cytokine levels; assay type: cell-based; settings: human PBMCs, 30 min compound pre-incubation, 100 ng/ml LPS for 6 hrs, supernatant, MSD
Method: (§1) Peripheral venous blood was collected from healthy individuals and human peripheral blood mononuclear cells (PBMCs) were isolated from blood by Ficoll-Histopaque (Sigma-Aldrich, A0561) density gradient centrifugation. After isolation, PBMCs were stored in liquid nitrogen for later use. Upon thawing, PBMC cell viability was determined in growth medium (RPMI media supplemented with 10% fetal bovine serum, 1% Pen-Strep and 1% L-glutamine). Compounds were spotted in a 1:3 serial dilution in DMSO and diluted to the final concentration in 30 µl medium in 96 well plates (Falcon, 353072). PBMCs were added at a density of 7.5 × 10^4 cells per well and incubated for 30 min in a 5% CO2 incubator at 37° C. LPS stimulation was performed by addition of 100 ng/ml LPS (final concentration, Invivogen, tlrl-smlps) for 6 hrs followed by collection of cellular supernatant and the analysis of IL-1β […] and TNF cytokines levels (µM) via MSD technology according to manufacturers’ guidelines (MSD, K151A0H).
(§2) The IC50 values (for IL-1β) and EC50 values (TNF) were obtained on compounds of the invention/examples, and are depicted in the following table: […]

IL-1β = assay: PBMC assay: LPS-stimulated IL-1β release; assay type: cell-based; settings: human PBMCs, 30 min compound pre-incubation, 100 ng/ml LPS for 6 hrs, supernatant, MSD
Method: as §1, §2

| Compound | EC50 (TNF; Homo sapiens, PBMC) | IC50 (IL-1β; Homo sapiens, PBMC) | IC50 (IL-1β) | EC50 (TNF) |
| --- | --- | --- | --- | --- |
| CC(C)c1nn(CC(=O)Nc2ccncn2)c(=O)c2cc(C(C)F)cn12 (stereo not shown) [Compound 39F, 2-[7-(1-fluoroethyl)-4-isopropyl-1-oxo-pyrrolo[1,2-d][1,2,4]triazin-2-yl]-N-pyrimidin-4-yl-acetamide] | > 10 µM | 4.31 µM | – | – |
| CC(C)c1nn(CC(=O)Nc2ccncn2)c(=O)c2cc(Cl)cn12 [Compound 6F] | > 10 µM | 3.67 µM | – | – |
| CC(C)c1nn(CC(=O)Nc2ccncn2)c(=O)c2cc(C#N)cn12 [Compound 42F] | > 10 µM | > 10 µM | – | – |
| CC(C)c1nn(CC(=O)Nc2ccncc2F)c(=O)c2cc(C(F)(F)F)cn12 [Compound 32F, N-(3-fluoro-4-pyridyl)-2-[4-isopropyl-1-oxo-7-(trifluoromethyl)pyrrolo[1,2-d][1,2,4]triazin-2-yl]acetamide] | > 10 µM | 1.5 µM | – | – |
| CC(C)c1nn(CC(=O)Nc2ccncc2F)c(=O)c2cc(I)cn12 [Compound 4F, N-(3-fluoro-4-pyridyl)-2-(7-iodo-4-isopropyl-1-oxo-pyrrolo[1,2-d][1,2,4]triazin-2-yl)acetamide] | > 10 µM | 0.25 µM | – | – |
| CC(C)c1nn(CC(=O)Nc2ccncn2)c(=O)c2cc(CN(C)C)cn12 [Compound 43F, 2-(7-((dimethylamino)methyl)-4-isopropyl-1-oxopyrrolo[1,2-d][1,2,4]triazin-2(1H)-yl)-N-(pyrimidin-4-yl)acetamide] | > 10 µM | > 10 µM | – | – |
| CC(C)c1nn(CC(=O)Nc2ccncn2)c(=O)c2cc(Br)cn12 [Compound 1F, 2-(7-bromo-4-isopropyl-1-oxo-pyrrolo[1,2-d][1,2,4]triazin-2-yl)-N-pyrimidin-4-yl-acetamide] | > 10 µM | 0.71 µM | – | – |
| CC(C)c1cc2c(=O)n(CC(=O)Nc3ccncn3)nc(C(C)C)n2c1 [Compound 19F] | > 10 µM | 0.35 µM | – | – |
| CC(C)c1cc2c(=O)n(CC(=O)Nc3ccncn3)nc(C(C)(C)O)n2c1 [Compound 37F, 2-[4-(1-hydroxy-1-methyl-ethyl)-7-isopropyl-1-oxo-pyrrolo[1,2-d][1,2,4]triazin-2-yl]-N-pyrimidin-4-yl-acetamide] | > 10 µM | 4.28 µM | – | – |
| CC(C)c1cc2c(=O)n(CC(=O)Nc3ccncc3F)nc(C(C)C)n2c1 [Compound 18F] | > 10 µM | 0.33 µM | – | – |
| C=Cc1cc2c(=O)n(CC(=O)Nc3ccncn3)nc(C(C)C)n2c1 [Compound 17F] | > 10 µM | 1.13 µM | – | – |
| COC(C)c1nn(CC(=O)Nc2ccncn2)c(=O)c2cc(C(C)C)cn12 (stereo not shown) [Compound 31F, 2-[7-isopropyl-4-(1-methoxyethyl)-1-oxo-pyrrolo[1,2-d][1,2,4]triazin-2-yl]-N-pyrimidin-4-yl-acetamide] | > 10 µM | 5.14 µM | – | – |
| CC(C)c1nn(CC(=O)Nc2ccncn2)c(=O)c2cc(CCC(F)(F)F)cn12 [Compound 33F, 2-[4-isopropyl-1-oxo-7-(3,3,3-trifluoropropyl)pyrrolo[1,2-d][1,2,4]triazin-2-yl]-N-pyrimidin-4-yl-acetamide] | > 10 µM | 3.62 µM | – | – |
| CC(C)c1nn(CC(=O)Nc2ccncn2)c(=O)c2cccn12 [Compound 11F] | > 10 µM | > 10 µM | – | – |
| CC(=O)N1CC(c2nn(CC(=O)Nc3ccncn3)c(=O)c3cc(C(C)C)cn23)C1 [Compound 46F] | > 10 µM | > 10 µM | – | – |
| CCc1nn(CC(=O)Nc2ccncc2F)c(=O)c2cc(C3CC3)cn12 [Compound 21F] | > 10 µM | 0.68 µM | – | – |
| CC(C)c1cc2c(=O)n(CC(=O)Nc3ccncn3)nc(C3CNC3)n2c1 [Compound 45F] | > 10 µM | > 10 µM | – | – |
| COCc1cc2c(=O)n(CC(=O)Nc3ccncn3)nc(C(C)C)n2c1 [Compound 3F] | > 10 µM | 7.85 µM | – | – |
| CC(C)c1nn(CC(=O)Nc2ccncc2F)c(=O)c2cc(F)cn12 [Compound 52F] | > 10 µM | > 10 µM | – | – |
| CC(C)c1nn(CC(=O)Nc2ccncn2)c(=O)c2cc(C3CCC3)cn12 [Compound 30F, 2-(7-cyclobutyl-4-isopropyl-1-oxo-pyrrolo[1,2-d][1,2,4]triazin-2-yl)-N-pyrimidin-4-yl-acetamide] | > 10 µM | 0.99 µM | – | – |
| CCc1nn(CC(=O)Nc2ccncn2)c(=O)c2cc(C3CC3)cn12 [Compound 20F] | > 10 µM | 0.59 µM | – | – |
| CC(C)c1nn(CC(=O)Nc2ccncn2)c(=O)c2cc(CO)cn12 [Compound 12F] | > 10 µM | 9.86 µM | – | – |
| CC(C)c1nn(CC(=O)Nc2ccncc2F)c(=O)c2cc(Br)cn12 [Compound 10F] | > 10 µM | 0.89 µM | – | – |
| COc1nn(CC(=O)Nc2ccncn2)c(=O)c2cc(C(C)C)cn12 [Compound 53F] | > 10 µM | 1.37 µM | 1.88 µM | – |
| CC(C)c1nn(CC(=O)Nc2ccncn2)c(=O)c2cc(I)cn12 [Compound 5F, 2-(7-iodo-4-isopropyl-1-oxo-pyrrolo[1,2-d][1,2,4]triazin-2-yl)-N-pyrimidin-4-yl-acetamide] | > 10 µM | – | – | – |

Next, values leading:

| EC50 (TNF; Homo sapiens, PBMC) | IC50 (IL-1β; Homo sapiens, PBMC) | IC50 (IL-1β) | EC50 (TNF) | Compound |
| --- | --- | --- | --- | --- |
| > 10 µM | > 10 µM | – | – | CC(C)c1nn(CC(=O)Nc2ccncn2)c(=O)c2cc(CC3CCNCC3)cn12 [Compound 82F, 2-(4-isopropyl-1-oxo-7-(piperidin-4-ylmethyl)pyrrolo[1,2-d][1,2,4]triazin-2(1H)-yl)-N-(pyrimidin-4-yl)acetamide] |
| – | 0.28 µM | – | – | CC(C)c1cc2c(=O)n(CC(=O)Nc3ccc4nncn4c3)nc(C(C)C)n2c1 [Compound 69F] |
| > 10 µM | 2.33 µM | – | – | CC(C)c1nn(CC(=O)Nc2ccncn2)c(=O)c2cc(CCCF)cn12 [Compound 78F, 2-(7-(3-fluoropropyl)-4-isopropyl-1-oxopyrrolo[1,2-d][1,2,4]triazin-2(1H)-yl)-N-(pyrimidin-4-yl)acetamide] |
| > 10 µM | > 10 µM | – | – | CC(C)c1nn(CC(=O)Nc2ccncn2)c(=O)c2cc(-c3cn[nH]c3)cn12 [Compound 91F] |
| > 10 µM | > 10 µM | – | – | CNC(=O)c1cc2c(=O)n(CC(=O)Nc3ccncn3)nc(C(C)C)n2c1 [Compound 76F, 4-isopropyl-N-methyl-1-oxo-2-(2-oxo-2-(pyrimidin-4-ylamino)ethyl)-1,2-dihydropyrrolo[1,2-d][1,2,4]triazine-7-carboxamide] |
| > 10 µM | > 10 µM | – | – | CC(C)c1nn(CC(=O)Nc2ccncn2)c(=O)c2cc(-c3cnn(C)c3)cn12 [Compound 89F, 2-(4-isopropyl-7-(1-methyl-1H-pyrazol-4-yl)-1-oxopyrrolo[1,2-d][1,2,4]triazin-2(1H)-yl)-N-(pyrimidin-4-yl)acetamide] |
| > 10 µM | 7.08 µM | 9.06 µM | – | COC(C)c1cc2c(=O)n(CC(=O)Nc3ccncn3)nc(C(C)C)n2c1 (stereo not shown) [Compound 88F] |
| > 10 µM | 2.23 µM | – | – | CC(C)c1cc2c(=O)n(CC(=O)N[C@H]3C[C@@](C)(O)C3)nc(C(C)OC3CC3)n2c1 (stereo partly shown) [Compound 62F] |
| > 10 µM | 0.24 µM | – | – | CC(C)c1nn(CC(=O)N[C@H]2C[C@@](C)(O)C2)c(=O)c2cc(I)cn12 [Compound 72F] |
| > 10 µM | > 10 µM | – | – | CC(C)c1nn(CC(=O)Nc2ccncn2)c(=O)c2cc(C3CCOCC3)cn12 [Compound 79F] |
| 19.8 µM | 0.14 µM | 0.26 µM | > 10 µM | CC(C)c1nn(CC(=O)Nc2ccc3nncn3c2)c(=O)c2cc(I)cn12 [Compound 71F] |
| > 10 µM | > 10 µM | – | – | CC(C)c1nn(CC(=O)Nc2ccncn2)c(=O)c2cc(C3CCNCC3)cn12 [Compound 84F, 2-(4-isopropyl-1-oxo-7-(piperidin-4-yl)pyrrolo[1,2-d][1,2,4]triazin-2(1H)-yl)-N-(pyrimidin-4-yl)acetamide] |
| > 10 µM | > 10 µM | – | – | CC(C)c1nn(CC(=O)Nc2ccncn2)c(=O)c2cc(-c3cc[nH]n3)cn12 [Compound 92F] |
| > 10 µM | – | – | – | CC(C)c1cc2c(=O)n(CC(=O)N[C@@H]3CCCN(C4CCC4)C3)nc(C(C)C)n2c1 [Compound 67F] |
| > 10 µM | 1.66 µM | – | – | CC(C)c1cc2c(=O)n(CC(=O)Nc3ccncn3)nc(N(C)CC3CC3)n2c1 [Compound 57F] |
| > 10 µM | > 10 µM | – | – | CC(C)c1nn(CC(=O)Nc2ccncn2)c(=O)c2cc(C3CNC3)cn12 [Compound 83F, 2-(7-(azetidin-3-yl)-4-isopropyl-1-oxopyrrolo[1,2-d][1,2,4]triazin-2(1H)-yl)-N-(pyrimidin-4-yl)acetamide] |
| > 10 µM | > 10 µM | – | – | CC(C)c1nn(CC(=O)Nc2ccncn2)c(=O)c2cc(-c3c[nH]cn3)cn12 [Compound 94F, 2-(7-(1H-imidazol-4-yl)-4-isopropyl-1-oxopyrrolo[1,2-d][1,2,4]triazin-2(1H)-yl)-N-(pyrimidin-4-yl)acetamide] |
| > 10 µM | > 10 µM | – | – | CC(=O)N(C)Cc1cc2c(=O)n(CC(=O)Nc3ccncn3)nc(C(C)C)n2c1 [Compound 70F, N-((4-isopropyl-1-oxo-2-(2-oxo-2-(pyrimidin-4-ylamino)ethyl)-1,2-dihydropyrrolo[1,2-d][1,2,4]triazin-7-yl)methyl)-N-methylacetamide] |
| – | > 10 µM | – | – | CC(C)c1nn(CC(=O)Nc2ccncn2)c(=O)c2cc(CC3CC(=O)N(C)C3)cn12 (stereo not shown) [Compound 81F] |
